These results are taken from article PMC8988824, “Subcutaneous in situ gel delivered leuprolide acetate's consistent and prolonged drug delivery maintains effective testosterone suppression independent of age and weight in men with prostate cancer” (BJUI Compass, 2020).

The series is described as follows: clinical. The conditions noted are these: male, human, in vivo, sc, 7.5 mg.

Procedure: An 8‐week, open‐label, single‐arm study was performed with the objective of evaluating safety, tolerability, and PK following a single dose of 7.5 mg Gel‐LA in surgically castrated men with advanced PCa. Testosterone levels were not evaluated for this study population.
Men aged 45‐85 years with histologically or cytologically proven adenocarcinoma of the prostate who had undergone bilateral orchiectomy at least 2 months prior to study start were eligible. […]
All patients received a single dose of 7.5 mg LA suspended in the ATRIGEL Delivery System (34% w/w Poly [DL‐lactide‐co‐glycolide] and 66% w/w N‐methyl‐2‐pyrrolidone) as a subcutaneous injection into the upper right or upper left quadrant of the abdomen. […] LA concentrations were determined with solid‐phase extraction and high‐performance liquid chromatography followed by radioimmunoassay. […]
Serum concentrations of LA were summarized as mean, standard deviation (SD), % relative SD, median, minimum, and maximum levels. PK parameters included the maximum observed LA concentration (Cmax), time of maximum serum concentration (Tmax), time of last measured LA concentration in serum (tldc), and area under the LA serum concentration vs time curve (AUC). AUC was determined by linear trapezoidal interpolation, and actual times of blood draws were used for the PK analyses. […]

Usually AUC(0-t) stands for the area under the concentration-time curve up to a stated or last time point. Lower therefore signals low exposure. Molecule `CCNC(=O)[C@@H]1CCCN1C(=O)[C@H](CCCNC(=N)N)NC(=O)[C@H](CC(C)C)NC(=O)[C@@H](CC(C)C)NC(=O)[C@H](Cc1ccc(O)cc1)NC(=O)[C@H](CO)NC(=O)[C@H](Cc1c[nH]c2ccccc12)NC(=O)[C@H](Cc1c[nH]cn1)NC(=O)[C@@H]1CCC(=O)N1` [Leuprolide Acetate, Leuprolide acetate] came in with an AUC(0-t) of 999 ng·h/mL.
